The source made the active and inactive calls.
Legend:
[1] = molecular target: T1, Sentrin-specific protease 8 (Homo sapiens, UniProt Q96LD8); experiment: inhibition of human SENP8 cleavage activity – biochemical, luminescence, SAR follow-up (AID 504501); type: functional
T1 sequence (Q96LD8 whole entry): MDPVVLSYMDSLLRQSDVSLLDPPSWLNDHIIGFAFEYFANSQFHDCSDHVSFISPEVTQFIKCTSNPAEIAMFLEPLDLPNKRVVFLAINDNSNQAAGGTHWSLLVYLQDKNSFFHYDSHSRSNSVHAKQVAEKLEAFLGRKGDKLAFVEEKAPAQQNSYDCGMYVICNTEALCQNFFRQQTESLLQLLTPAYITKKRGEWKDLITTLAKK

[2] = molecular target: T2, Sentrin-specific protease 7 (Homo sapiens, UniProt Q9BQF6); experiment: inhibition of human SENP7 cleavage activity – biochemical, luminescence, SAR follow-up (AID 504497); type: functional
T2 sequence (Q9BQF6 whole entry): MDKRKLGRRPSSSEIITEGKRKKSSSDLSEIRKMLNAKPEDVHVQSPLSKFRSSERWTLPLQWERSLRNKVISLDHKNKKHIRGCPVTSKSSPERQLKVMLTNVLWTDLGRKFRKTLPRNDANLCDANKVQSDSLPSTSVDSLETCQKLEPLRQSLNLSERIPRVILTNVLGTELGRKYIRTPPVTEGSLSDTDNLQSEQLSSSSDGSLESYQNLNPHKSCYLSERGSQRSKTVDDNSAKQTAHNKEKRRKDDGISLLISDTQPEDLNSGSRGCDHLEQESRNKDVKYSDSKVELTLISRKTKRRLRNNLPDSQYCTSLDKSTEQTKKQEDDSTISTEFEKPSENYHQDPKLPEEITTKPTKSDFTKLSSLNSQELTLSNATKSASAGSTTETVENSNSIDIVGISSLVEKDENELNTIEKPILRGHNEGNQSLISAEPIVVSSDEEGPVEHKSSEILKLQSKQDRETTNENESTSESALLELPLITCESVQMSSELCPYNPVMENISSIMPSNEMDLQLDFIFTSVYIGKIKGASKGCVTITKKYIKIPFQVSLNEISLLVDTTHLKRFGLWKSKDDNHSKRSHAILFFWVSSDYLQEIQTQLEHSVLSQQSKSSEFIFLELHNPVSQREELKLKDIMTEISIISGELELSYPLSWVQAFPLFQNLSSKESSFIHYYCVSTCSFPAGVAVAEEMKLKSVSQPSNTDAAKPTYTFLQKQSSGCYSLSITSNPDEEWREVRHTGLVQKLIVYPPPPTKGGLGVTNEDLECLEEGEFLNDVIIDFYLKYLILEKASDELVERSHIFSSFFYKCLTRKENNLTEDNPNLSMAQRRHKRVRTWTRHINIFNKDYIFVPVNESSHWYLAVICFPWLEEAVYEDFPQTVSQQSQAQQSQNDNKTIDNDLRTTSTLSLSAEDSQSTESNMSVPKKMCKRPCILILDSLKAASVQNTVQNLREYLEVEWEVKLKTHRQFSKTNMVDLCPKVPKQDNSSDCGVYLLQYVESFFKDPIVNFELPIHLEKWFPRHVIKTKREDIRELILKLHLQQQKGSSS

[3] = molecular target: T3, Serine/threonine-protein phosphatase (Homo sapiens, UniProt Q9BPW0); experiment: inhibition of protein phosphatase 5 activity – biochemical, fluorescence, dose response (AID 2395)
T3 sequence (Q9BPW0 whole entry): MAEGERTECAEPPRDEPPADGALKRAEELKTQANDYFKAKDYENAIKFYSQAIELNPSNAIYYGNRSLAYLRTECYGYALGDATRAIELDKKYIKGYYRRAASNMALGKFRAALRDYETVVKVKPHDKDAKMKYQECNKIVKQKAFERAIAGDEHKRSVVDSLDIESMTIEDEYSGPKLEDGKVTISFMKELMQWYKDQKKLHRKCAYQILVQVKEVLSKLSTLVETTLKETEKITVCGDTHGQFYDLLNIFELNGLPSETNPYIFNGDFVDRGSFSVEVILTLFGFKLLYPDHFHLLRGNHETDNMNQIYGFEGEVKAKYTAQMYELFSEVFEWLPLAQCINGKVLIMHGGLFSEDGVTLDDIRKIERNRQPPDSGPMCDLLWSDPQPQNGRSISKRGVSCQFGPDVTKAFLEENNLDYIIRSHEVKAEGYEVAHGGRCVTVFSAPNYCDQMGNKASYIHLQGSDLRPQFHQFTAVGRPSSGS

HEK293 [4] = experiment: NOD2 signaling inhibitors in MDP-stimulated cells, cell-based, uHTS, luminescence (AID 2001); type: functional; conditions: Homo sapiens
HEK293 [5] = experiment: inhibition of NOD1-driven NF-kB reporter – cell-based, luminescence, uHTS, primary screen (AID 1578); type: functional; conditions: Homo sapiens
HEK293 [6] = experiment: cells; type: functional, cell-based; conditions: Homo sapiens
H4 [7] = experiment: Inhibitors of Prion Protein 5' UTR mRNA Measured in Cell-Based System Using Plate Reader - 2078-01_Inhibitor_Dose_DryPowder_Activity. [Related pubchem assays (depositor defined):AID488894]; type: functional; conditions: Homo sapiens
H4 [8] = experiment: inhibitors of control reporter signal in H4 cells – cell-based, plate reader, dry powder samples, counter-screen for prion reporter project, dose response (AID 540255); type: functional; conditions: Homo sapiens
HEK293 [9] = experiment: cells; type: functional, cell-based; conditions: Homo sapiens; remark: listed apart in the source
[10] = molecular target: Nucleotide-binding oligomerization domain-containing protein 2 (Homo sapiens, UniProt Q9HC29); experiment: inhibition of NOD2-driven NF-kB reporter – cell-based, luminescence, uHTS, HEK293 (AID 1566); type: functional
Sequence of Nucleotide-binding oligomerization domain-containing protein 2 (Q9HC29 whole entry, the tested form may be a part): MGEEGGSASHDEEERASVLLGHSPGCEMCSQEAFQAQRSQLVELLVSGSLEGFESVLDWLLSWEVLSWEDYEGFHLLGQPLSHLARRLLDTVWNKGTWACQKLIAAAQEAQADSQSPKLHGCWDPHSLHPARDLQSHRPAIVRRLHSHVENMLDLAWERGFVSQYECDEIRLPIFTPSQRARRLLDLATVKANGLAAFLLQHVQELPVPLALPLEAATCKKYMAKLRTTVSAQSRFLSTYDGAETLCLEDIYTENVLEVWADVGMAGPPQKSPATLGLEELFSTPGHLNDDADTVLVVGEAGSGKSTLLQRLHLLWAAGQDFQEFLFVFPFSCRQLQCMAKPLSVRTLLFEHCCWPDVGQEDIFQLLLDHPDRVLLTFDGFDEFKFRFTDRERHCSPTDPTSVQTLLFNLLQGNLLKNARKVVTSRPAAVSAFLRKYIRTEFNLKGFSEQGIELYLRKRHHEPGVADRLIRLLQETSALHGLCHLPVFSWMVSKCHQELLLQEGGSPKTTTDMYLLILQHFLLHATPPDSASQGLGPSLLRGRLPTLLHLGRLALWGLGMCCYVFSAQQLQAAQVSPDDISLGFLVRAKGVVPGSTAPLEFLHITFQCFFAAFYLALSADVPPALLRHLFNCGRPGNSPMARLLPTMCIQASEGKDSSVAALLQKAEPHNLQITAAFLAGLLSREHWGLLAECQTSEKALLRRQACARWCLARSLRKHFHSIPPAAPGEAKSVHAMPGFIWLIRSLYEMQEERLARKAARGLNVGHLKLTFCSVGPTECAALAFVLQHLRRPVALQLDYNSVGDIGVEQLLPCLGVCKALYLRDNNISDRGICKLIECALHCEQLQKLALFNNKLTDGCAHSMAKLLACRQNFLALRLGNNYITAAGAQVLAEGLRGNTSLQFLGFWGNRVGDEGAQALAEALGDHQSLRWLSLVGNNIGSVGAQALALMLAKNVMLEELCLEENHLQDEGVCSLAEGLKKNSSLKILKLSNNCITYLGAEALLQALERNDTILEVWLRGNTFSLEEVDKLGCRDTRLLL

Mu-type opioid receptor = Mu-type opioid receptor (Homo sapiens, UniProt P35372); experiment: Counterscreen for agonists of heterodimerization of the mu 1 (OPRM1) and delta 1 (OPRD1) opioid receptors: Luminescence-based cell-based high throughput dose response assay to identify agonists of OPRM1 homodimerization.; type: functional;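 also: U2OS cells expressing OPRM1 and beta-arrestin as split beta-galactosidase partners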
Sequence of Mu-type opioid receptor (P35372 whole entry): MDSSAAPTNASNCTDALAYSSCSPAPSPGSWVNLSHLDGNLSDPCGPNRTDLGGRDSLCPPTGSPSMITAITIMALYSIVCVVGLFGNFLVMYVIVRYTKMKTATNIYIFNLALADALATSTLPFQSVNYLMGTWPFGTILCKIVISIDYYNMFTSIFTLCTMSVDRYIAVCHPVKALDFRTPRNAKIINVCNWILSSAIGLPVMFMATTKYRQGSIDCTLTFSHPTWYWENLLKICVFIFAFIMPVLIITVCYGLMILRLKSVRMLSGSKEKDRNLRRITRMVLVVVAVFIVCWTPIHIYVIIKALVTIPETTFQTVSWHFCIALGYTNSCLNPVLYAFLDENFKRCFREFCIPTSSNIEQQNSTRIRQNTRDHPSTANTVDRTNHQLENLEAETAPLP

SUMO E1/E2 = SUMO E1/E2 (Homo sapiens, UniProt P63279+Q9UBE0+Q9UBT2); experiment: SAR analysis of SUMOylation using HTRF in an in-Vitro dose response assay. [Related pubchem assays (depositor defined):AID2006, AID2011, AID2018, AID2069, AID2658]; type: functional
Sequence of SUMO E1/E2 (Q9UBE0 whole entry): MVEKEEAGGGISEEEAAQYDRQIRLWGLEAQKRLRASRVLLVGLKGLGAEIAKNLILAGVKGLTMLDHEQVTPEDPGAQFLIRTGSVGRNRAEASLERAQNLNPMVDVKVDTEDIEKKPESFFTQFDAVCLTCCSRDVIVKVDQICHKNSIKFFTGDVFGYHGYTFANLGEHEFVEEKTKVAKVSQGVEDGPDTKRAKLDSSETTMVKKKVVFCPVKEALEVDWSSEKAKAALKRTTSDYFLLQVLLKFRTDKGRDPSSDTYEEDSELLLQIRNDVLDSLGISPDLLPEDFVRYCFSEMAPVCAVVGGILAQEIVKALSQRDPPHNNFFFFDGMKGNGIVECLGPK
Sequence of SUMO E1/E2 (Q9UBT2 whole entry): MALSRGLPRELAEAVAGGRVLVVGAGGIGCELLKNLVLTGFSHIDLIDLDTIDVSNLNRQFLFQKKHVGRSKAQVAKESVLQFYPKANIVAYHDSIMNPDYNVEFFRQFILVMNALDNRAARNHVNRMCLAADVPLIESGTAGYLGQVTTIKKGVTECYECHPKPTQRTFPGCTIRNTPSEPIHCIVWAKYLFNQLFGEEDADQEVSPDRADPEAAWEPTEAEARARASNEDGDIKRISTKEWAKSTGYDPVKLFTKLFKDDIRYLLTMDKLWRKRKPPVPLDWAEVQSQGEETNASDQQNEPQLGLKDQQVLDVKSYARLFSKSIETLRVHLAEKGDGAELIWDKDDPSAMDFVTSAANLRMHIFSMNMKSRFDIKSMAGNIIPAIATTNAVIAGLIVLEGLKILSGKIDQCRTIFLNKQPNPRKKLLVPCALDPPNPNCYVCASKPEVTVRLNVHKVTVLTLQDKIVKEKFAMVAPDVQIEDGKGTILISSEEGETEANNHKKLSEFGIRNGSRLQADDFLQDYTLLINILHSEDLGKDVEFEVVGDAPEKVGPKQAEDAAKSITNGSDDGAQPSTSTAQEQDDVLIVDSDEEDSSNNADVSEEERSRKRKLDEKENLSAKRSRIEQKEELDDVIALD
Sequence of SUMO E1/E2 (P63279 whole entry): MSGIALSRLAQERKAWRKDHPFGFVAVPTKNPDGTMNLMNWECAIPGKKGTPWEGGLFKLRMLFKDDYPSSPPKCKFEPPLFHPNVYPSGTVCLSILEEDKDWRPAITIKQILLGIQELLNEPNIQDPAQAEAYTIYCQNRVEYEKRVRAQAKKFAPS

SUMO-activating enzyme [11] = molecular target: T4, SUMO-activating enzyme (Homo sapiens, UniProt Q9UBT2); experiment: blockers of UBC9-mediated SUMO conjugation – biochemical, AlphaScreen, SUMOylation inhibitor project, confirmation (AID 2018); type: functional
T4 sequence (Q9UBE0 whole entry, the tested form may be a part): as the sequence (Q9UBE0 whole entry) above
T4 sequence (Q9UBT2 whole entry, the tested form may be a part): as the sequence (Q9UBT2 whole entry) above

[12] = inhibition of ARNT PAS-B/TACC3 complex formation – biochemical, AlphaScreen, cherry-picked samples, confirmation (AID 651703); type: functional, Homo sapiens;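 also: His-tagged ARNT PAS-B domain paired with GST-TACC3 E629A dimer coactivator fragment; potency of inhibitors that break up the complex and lower AlphaScreen signal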
SUMO-activating enzyme [13] = molecular target: T4, SUMO-activating enzyme; experiment: blockers of SAE1/SAE2–UBC9 SUMO transfer – biochemical, HTRF, uHTS, primary screen (AID 2006); type: protein-complex assay
[14] = molecular target: T5, Polyadenylate-binding protein 1 (Homo sapiens, UniProt P11940); experiment: MLLE domain peptide-binding blockers, IC50 – biochemical, fluorescence polarization, FITC-PAM2 peptide, dose response (AID 602259); type: functional; conditions: read-out: IC50_Mean
T5 sequence (P11940 whole entry, the tested form may be a part): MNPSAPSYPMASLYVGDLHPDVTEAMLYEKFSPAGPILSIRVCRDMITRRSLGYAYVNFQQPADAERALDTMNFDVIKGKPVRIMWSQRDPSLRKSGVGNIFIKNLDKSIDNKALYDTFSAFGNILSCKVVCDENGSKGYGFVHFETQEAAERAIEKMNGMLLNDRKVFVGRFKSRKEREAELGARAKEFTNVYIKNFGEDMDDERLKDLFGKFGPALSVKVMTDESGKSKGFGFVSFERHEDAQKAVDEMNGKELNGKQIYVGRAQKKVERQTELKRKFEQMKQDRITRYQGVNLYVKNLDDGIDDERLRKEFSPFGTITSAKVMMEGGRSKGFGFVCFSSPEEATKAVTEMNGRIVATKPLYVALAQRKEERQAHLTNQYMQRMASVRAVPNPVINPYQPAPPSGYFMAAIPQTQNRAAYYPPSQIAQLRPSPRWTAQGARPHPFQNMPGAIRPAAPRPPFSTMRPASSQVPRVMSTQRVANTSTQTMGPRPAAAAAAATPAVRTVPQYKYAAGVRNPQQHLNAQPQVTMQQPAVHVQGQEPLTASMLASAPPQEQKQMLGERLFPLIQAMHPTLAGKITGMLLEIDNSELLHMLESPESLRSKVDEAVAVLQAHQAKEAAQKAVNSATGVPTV

[15] = molecular target: T5, Polyadenylate-binding protein 1; experiment: MLLE binding blockers, Cy5 peptide tracer – biochemical, fluorescence polarization, Cy5-PAM2 peptide, secondary, miRNA deadenylation inhibitor project, dose response (AID 602260); type: functional; conditions: read-out: IC50_Mean

Cc1ccc(C(=O)NNc2cc(N3CCCC3)nc(N3CCCC3)n2)cc1
IC50 [1]: 4.39 µM (active) | IC50 [2]: 7.68 µM (active) | IC50 [3]: 4.1 µM (active)

Cc1cc(/C=C2\SC(=S)N(C)C2=O)c(C)n1-c1ccc(O)cc1
IC50 (HEK293 [4]): 6.54 µM (inactive) | EC50 (HEK293 [5]): 9.47 µM (active) | IC50 (HEK293 [6]): 0.345 µM (active) | AC50 (H4 [7]): 0.181 µM (active) | AC50 (H4 [8]): 0.492 µM (active) | IC50 (HEK293 [9]): 11.2 µM (active) | EC50 [10]: 0.57 µM (active) | EC50 (Mu-type opioid receptor): > 92.5 µM (inactive)

COC(=O)c1cccc(-c2ccc(C(c3c(C)n[nH]c3O)c3c(C)n[nH]c3O)o2)c1
IC50 (SUMO E1/E2): > 100 µM (inactive) | IC50 (SUMO-activating enzyme [11]): 9.36 µM (active) | AC50 [12]: 87.9 µM (active) | IC50 (SUMO-activating enzyme [13]): > 100 µM (inactive)

O=C1/C(=N\c2cccc(O)c2)C(N2CCCCC2)=C(O)c2ccccc21
IC50 [14]: > 66 µM (inactive) | IC50 [15]: > 66 µM (inactive)

— ChEMBL document CHEMBL1201862, “PubChem BioAssay data set” (2004)
